# Measurements reported in patent US20250122174A1 (Shenzhen Yuanli Shenwan Innovative Medicine Co., Ltd., priority 2022, published 2025).
# Target: HPK1 (Homo sapiens (Human), UniProt Q92918)
# Experiment: HPK1 Inhibition Assay (ADP-Glo kinase assay)
# Assay type: biochemical
# Conditions: ATP 10 μM
# How it was run: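 ADP-Glo luminescence read-out after 1 h room-temperature kinase reaction with 10 μM ATP and 0.1 μg/ml MBP. Recombinant human HPK1 at 7.5 ng/μl; buffer 40 mM Tris pH 7.5, 20 mM MgCl2. Compounds serially diluted 5-fold over 10 points from 10 mM DMSO stock.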
# Sequence of HPK1 (Q92918 1-346 limits assumed): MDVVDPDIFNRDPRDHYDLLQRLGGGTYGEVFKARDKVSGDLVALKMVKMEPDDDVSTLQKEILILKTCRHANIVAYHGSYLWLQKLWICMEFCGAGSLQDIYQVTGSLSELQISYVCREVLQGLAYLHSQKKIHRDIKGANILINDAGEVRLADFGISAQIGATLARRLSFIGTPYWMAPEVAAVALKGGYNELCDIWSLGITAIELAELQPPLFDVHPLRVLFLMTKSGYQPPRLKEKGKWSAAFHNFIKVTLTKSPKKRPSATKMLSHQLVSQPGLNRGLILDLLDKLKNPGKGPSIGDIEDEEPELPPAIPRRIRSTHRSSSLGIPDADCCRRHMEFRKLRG
row,Structure (SMILES),IC50 [nM]
1,"CCC(C)(C)n1cc2c(N3C[C@@H](C)[C@@H](N)C3)c(NC(=O)c3ccc(=O)n(-c4c(F)cccc4F)n3)ccc2n1 [Example 244, 1-(2,6-difluorophenyl)-N-(4-[(3R,4R)-3-amino-4-methyltetrahydro-1H-pyrrol-1-yl]-2-(2-methylbut-2-yl)indazol-5-yl)-6-oxo-1,2-diazine-3-carboxamide]",< 100
2,"C[C@@H]1CN(c2c(NC(=O)c3ccc(=O)n(-c4c(F)cccc4F)n3)ccc3nn(C45CC(C4)C5)cc23)C[C@@H]1N [Example 316, N-(4-((3R,4R)-3-amino-4-methylpyrrolidin-1-yl)-2-(bicyclo[1.1.1]pentan-1-yl)-2H-indazol-5-yl)-1-(2,6-difluorophenyl)-6-oxo-1,6-dihydropyridazine-3-carboxamide]",< 100
3,"CC(C)n1nc(F)c2c(N3C[C@@H](C)[C@@H](N)C3)c(NC(=O)c3ccc(=O)n(-c4c(F)cccc4F)n3)ccc21 [Example 198, N-(4-((3R,4R)-3-amino-4-methylpyrrolidin-1-yl)-3-fluoro-1-isopropyl-1H-indazol-5-yl)-1-(2,6-difluorophenyl)-6-oxo-1,6-dihydropyridazine-3-carboxamide]",< 100
4,"C[C@@H]1CN(c2c(NC(=O)c3ccc(=O)n(-c4c(F)cccc4F)n3)ccc3c2ncn3C2CCOCC2)C[C@@H]1N [Example 153, N-(4-((3R,4R)-3-amino-4-methylpyrrolidin-1-yl)-1-(tetrahydro-2H-pyran-4-yl)-1H-benzo[d]imidazol-5-yl)-1-(2,6-difluorophenyl)-6-oxo-1,6-dihydropyridazine-3-carboxamide]",< 100
5,"CC(C)c1nc2c(N3C[C@@H](C)[C@@H](N)C3)c(NC(=O)c3ccc(=O)n(-c4c(F)cccc4F)n3)ccc2n1C [Example 110, N-(4-((3R,4R)-3-amino-4-methylpyrrolidin-1-yl)-2-isopropyl-1-methyl-1H-benzo[d]imidazol-5-yl)-1-(2,6-difluorophenyl)-6-oxo-1,6-dihydropyridazine-3-carboxamide]",< 100
6,"[2H]C([2H])([2H])C(n1ncc2c(N3C[C@H](N)C4(CC4)C3)c(NC(=O)c3ccc(=O)n(-c4c(F)cccc4F)n3)ccc21)C([2H])([2H])[2H] [Example 277, (R)-N-(4-(7-amino-5-azaspiro[2.4]heptan-5-yl)-1-(propan-2-yl-1,1,1,3,3,3-d6)-1H-indazol-5-yl)-1-(2,6-difluorophenyl)-6-oxo-1,6-dihydropyridazine-3-carboxamide]",< 100
7,"Cc1nn(C(C)C)c2ccc(NC(=O)c3ccc(=O)n(-c4c(F)cccc4F)n3)c(N3C[C@H](N)C4(CC4)C3)c12 [Example 202, (R)-N-(4-(7-amino-5-azaspiro[2.4]heptan-5-yl)-1-isopropyl-3-methyl-1H-indazol-5-yl)-1-(2,6-difluorophenyl)-6-oxo-1,6-dihydropyridazine-3-carboxamide]",< 100
8,"[2H]C([2H])([2H])C([2H])(n1ncc2c(N3C[C@H](N)C(C)(C)C3)c(NC(=O)c3ccc(=O)n(-c4c(F)cccc4F)n3)ccc21)C([2H])([2H])[2H] [Example 281, (R)-N-(4-(4-amino-3,3-dimethylpyrrolidin-1-yl)-1-(propan-2-yl-d7)-1H-indazol-5-yl)-1-(2,6-difluorophenyl)-6-oxo-1,6-dihydropyridazine-3-carboxamide]",< 100
9,"C[C@@H]1CN(c2c(NC(=O)c3ccc(=O)n(-c4c(F)cccc4F)n3)ccc3c2cnn3C2CCCCC2)C[C@@H]1N [Example 297, N-(4-((3R,4R)-3-amino-4-methylpyrrolidin-1-yl)-1-cyclohexyl-1H-indazol-5-yl)-1-(2,6-difluorophenyl)-6-oxo-1,6-dihydropyridazine-3-carboxamide]",< 100
10,COCCn1c(C)nc2c(N3CCC[C@H]3CN)c(NC(=O)c3ccnn(-c4c(F)cccc4F)c3=O)ccc21 [Example 45],< 100
11,"CC[C@@H]1CN(c2c(NC(=O)c3ccc(=O)n(-c4c(F)cccc4F)n3)ccc3c2cnn3C(C)C)C[C@@H]1N (single isomer, unassigned) [Example 197]",< 100
12,"CC(C)c1nc2c(N3CC(F)(F)C[C@H]3CN)c(NC(=O)c3ccc(=O)n(-c4c(F)cccc4F)n3)ccc2n1C [Example 141, (S)-N-(4-(2-(aminomethyl)-4,4-difluoropyrrolidin-1-yl)-2-isopropyl-1-methyl-1H-benzo[d]imidazol-5-yl)-1-(2,6-difluorophenyl)-6-oxo-1,6-dihydropyridazine-3-carboxamide]",< 100
13,"CC(C)n1ncc2c(N3C[C@@H]4[C@@H](N)[C@@H]4C3)c(NC(=O)c3ccc(=O)n(-c4c(F)cccc4F)n3)ccc21 [Example 211, N-(4-((1R,5S,6s)-6-amino-3-azabicyclo[3.1.0]hexan-3-yl)-1-isopropyl-1H-indazol-5-yl)-1-(2,6-difluorophenyl)-6-oxo-1,6-dihydropyridazine-3-carboxamide]",< 100

# Continued, values first:
row,IC50 [nM],Structure (SMILES)
1,< 100,"CC(C)(C)n1cc2c(N3C[C@@H](N)C4(CC4)C3)c(NC(=O)c3ccc(=O)n(-c4c(F)cccc4F)n3)ccc2n1 [Example 242, (S)-N-(4-(7-amino-5-azaspiro[2.4]heptan-5-yl)-2-(tert-butyl)-2H-indazol-5-yl)-1-(2,6-difluorophenyl)-6-oxo-1,6-dihydropyridazine-3-carboxamide]"
2,< 100,"[2H]C([2H])([2H])n1cc2c(N3C[C@@H](C)[C@@H](N)C3)c(NC(=O)c3ccc(=O)n(-c4c(F)cccc4F)n3)ccc2n1 [Example 178, N-(4-((3R,4R)-3-amino-4-methylpyrrolidin-1-yl)-2-(methyl-d3)-2H-indazol-5-yl)-1-(2,6-difluorophenyl)-6-oxo-1,6-dihydropyridazine-3-carboxamide]"
3,< 100,"COc1cccc(F)c1-c1cccc(C(=O)Nc2cc(F)c3nn(C)cc3c2N2CC[C@H](N)C2)[n+]1[O-] [Example 59, 2-((4-((S)-3-aminopyrrolidin-1-yl)-7-fluoro-2-methyl-2H-indazol-5-yl)carbamoyl)-6-(2-fluoro-6-methoxyphenyl)pyridine 1-oxide]"
4,< 100,"C[C@H]1CN(c2c(NC(=O)c3ccc(=O)n(-c4c(F)cccc4F)n3)ccc3c2cnn3C)C[C@@H]1N [Example 173, N-(4-((3R,4S)-3-amino-4-methylpyrrolidin-1-yl)-1-methyl-1H-indazol-5-yl)-1-(2,6-difluorophenyl)-6-oxo-1,6-dihydropyridazine-3-carboxamide]"
5,< 100,"CC(C)Cn1cc2c(N3CC[C@@H](N)C3)c(NC(=O)c3ccc(=O)n(-c4c(F)cccc4F)n3)ccc2n1 [Example 331, (R)-N-(4-(3-aminopyrrolidin-1-yl)-2-isobutyl-2H-indazol-5-yl)-1-(2,6-difluorophenyl)-6-oxo-1,6-dihydropyridazine-3-carboxamide]"
6,< 100,"Cc1nc2c(N3CC[C@@](C)(N)C3)c(NC(=O)c3ccc(=O)n(-c4c(F)cccc4F)n3)ccc2n1C [Example 90, (R)-N-(4-(3-amino-3-methylpyrrolidin-1-yl)-1,2-dimethyl-1H-benzo[d]imidazol-5-yl)-1-(2,6-difluorophenyl)-6-oxo-1,6-dihydropyridazine-3-carboxamide]"
7,100 to 1000,"Cc1nc2c(N(C)CC3CNC3)c(NC(=O)c3ccc(=O)n(-c4c(F)cccc4F)n3)ccc2n1C [Example 86, N-(4-((azetidin-3-ylmethyl)(methyl)amino)-1,2-dimethyl-1H-benzo[d]imidazol-5-yl)-1-(2,6-difluorophenyl)-6-oxo-1,6-dihydropyridazine-3-carboxamide]"
8,< 100,"N[C@@H]1CCN(c2c(NC(=O)c3ccc(=O)n(-c4c(F)cccc4F)n3)ccc3c2cnn3CC2CC2)C1 [Example 295, (R)-N-(4-(3-aminopyrrolidin-1-yl)-1-(cyclopropylmethyl)-1H-indazol-5-yl)-1-(2,6-difluorophenyl)-6-oxo-1,6-dihydropyridazine-3-carboxamide]"
9,< 100,"CSCc1nc2c(N3CC[C@@H](N)C3)c(NC(=O)c3ccc(=O)n(-c4c(F)cccc4F)n3)ccc2n1C [Example 162, (R)-N-(4-(3-aminopyrrolidin-1-yl)-1-methyl-2-((methylthio)methyl)-1H-benzo[d]imidazol-5-yl)-1-(2,6-difluorophenyl)-6-oxo-1,6-dihydropyridazine-3-carboxamide]"
10,< 100,"CC(C)c1nc2c(N3CC[C@@H](N)C3)c(NC(=O)c3ccc(=O)n(-c4c(F)cccc4F)n3)cc(F)c2n1C [Example 143, (R)—N-(4-(3-aminopyrrolidin-1-yl)-7-fluoro-2-isopropyl-1-methyl-1H-benzo[d]imidazol-5-yl)-1-(2,6-difluorophenyl)-6-oxo-1,6-dihydropyridazine-3-carboxamide]"
11,< 100,"CC(C)n1nc(Cl)c2c(N3CC[C@@H](N)C3)c(NC(=O)c3ccc(=O)n(-c4c(F)cccc4F)n3)cc(F)c21 [Example 190, (R)-N-(4-(3-aminopyrrolidin-1-yl)-3-chloro-7-fluoro-1-isopropyl-1H-indazol-5-yl)-1-(2,6-difluorophenyl)-6-oxo-1,6-dihydropyridazine-3-carboxamide]"
12,< 100,"CC(C)n1cc2c(N3CCC[C@@H](N)C3)c(NC(=O)c3ccc(=O)n(-c4c(F)cccc4F)n3)ccc2n1 [Example 232, (R)-N-(4-(3-aminopiperidin-1-yl)-2-isopropyl-2H-indazol-5-yl)-1-(2,6-difluorophenyl)-6-oxo-1,6-dihydropyridazine-3-carboxamide]"
13,< 100,"CC(C)n1cc2c(N3CCC(N)CC3)c(NC(=O)c3ccc(=O)n(-c4c(F)cccc4F)n3)ccc2n1 [Example 230, N-(4-(4-aminopiperidin-1-yl)-2-isopropyl-2H-indazol-5-yl)-1-(2,6-difluorophenyl)-6-oxo-1,6-dihydropyridazine-3-carboxamide]"
14,< 100,"CC(C)c1nc2c(N3CC[C@@H](N)C3)c(NC(=O)c3ccc(=O)n(-c4c(F)cccc4F)n3)ccc2n1C [Example 109, (R)—N-(4-(3-aminopyrrolidin-1-yl)-2-isopropyl-1-methyl-1H-benzo[d]imidazol-5-yl)-1-(2,6-difluorophenyl)-6-oxo-1,6-dihydropyridazine-3-carboxamide]"
